In the assay the target is T1, CysR (Corynebacterium glutamicum, UniProt Q8NU28).
T1 construct: gene Cgl0121; expressed in E. coli ER2566 from pTYB1 (pCR050)
T1 sequence (Q8NU28 1-381): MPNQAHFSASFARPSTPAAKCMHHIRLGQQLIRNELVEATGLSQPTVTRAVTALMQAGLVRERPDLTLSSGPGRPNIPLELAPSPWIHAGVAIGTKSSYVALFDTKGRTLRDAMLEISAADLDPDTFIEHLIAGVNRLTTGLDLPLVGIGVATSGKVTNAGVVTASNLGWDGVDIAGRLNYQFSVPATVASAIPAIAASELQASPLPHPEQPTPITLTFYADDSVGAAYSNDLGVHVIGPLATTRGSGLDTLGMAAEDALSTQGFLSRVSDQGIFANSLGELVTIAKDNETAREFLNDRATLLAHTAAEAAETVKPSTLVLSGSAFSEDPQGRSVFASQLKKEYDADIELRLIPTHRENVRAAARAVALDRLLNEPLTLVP
Nature of the assay: EMSA, effector-dependent DNA binding. The following applies: 10 mM effector; Cy3-labelled 523 bp cysI-fpr2 DNA; 1,000 times molar excess of protein; pH 7.5; room temperature; co-activator. (Mobility shift assays separate free from complexed probe on a gel.)

With `CC(=O)OCC[C@H](N)C(=O)O` [OAH, O-acetyl-L-homoserine], the “EMSA, effector-dependent DNA binding” value is reported as “CysR can only bind if either OAS or OAH is added to the assay”. `CC(=O)OC[C@H](N)C(=O)O` [OAS, O-acetyl-L-serine]: the “EMSA, effector-dependent DNA binding” value is listed as “CysR can only bind if either OAS or OAH is added to the assay”.

The record behind these values is paper PMC2580772, “The dual transcriptional regulator CysR in Corynebacterium glutamicum ATCC 13032 controls a subset of genes of the McbR regulon in response to the availability of sulphide acceptor molecules” (BMC Genomics, 2008).
